According to the supplement of paper PMC10307832:

Key:
Experiment in all cases: relative viability (nuclei count vs DMSO), 5 days (fraction); higher = more cells survive
[1] = compound: CC(C)C[C@H](NC(=O)[C@H](CCc1ccccc1)NC(=O)CN1CCOCC1)C(=O)N[C@@H](Cc1ccccc1)C(=O)N[C@@H](CC(C)C)C(=O)[C@@]1(C)CO1 [Carfilzomib] + CC(=O)Nc1cccc(-n2c(=O)n(C3CC3)c(=O)c3c(Nc4ccc(I)cc4F)n(C)c(=O)c(C)c32)c1 [Trametinib] (partner 0.02 µM)
In short: (§1)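 Lung cancer cell lines in 1536-well plates got either a single drug or a fixed anchor-drug dose together with five library-drug doses (not always all listed) in √10 steps, by pin tool, on the day after seeding. Nuclei were counted after 5 days, and relative viability is the treated-to-vehicle ratio of nuclei counts. Values are medians of duplicate plates.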

[2] = compound: C[C@@H](Oc1cc(-c2cnn(C3CCNCC3)c2)cnc1N)c1c(Cl)ccc(F)c1Cl [Crizotinib] + COc1cccc2cc(-c3nc([C@H]4CC[C@H](C(=O)O)CC4)n4ncnc(N)c34)[nH]c12 [OSI-027] (partner 0.5 µM)
In short: as §1

[3] = compound: O=C(c1cc(Cc2n[nH]c(=O)c3ccccc23)ccc1F)N1CCN(C(=O)C2CC2)CC1 [Olaparib] + NC(=O)Nc1cc(-c2cccc(F)c2)sc1C(=O)N[C@H]1CCCNC1 [AZD7762] (partner 0.2 µM)
In short: as §1

[4] = compound: C[C@@H](Oc1cc(-c2cnn(C3CCNCC3)c2)cnc1N)c1c(Cl)ccc(F)c1Cl [Crizotinib] + CS(=O)(=O)N1CCN(Cc2cc3nc(-c4cccc5[nH]ncc45)nc(N4CCOCC4)c3s2)CC1 [Pictilisib] (partner 1 µM)
In short: as §1

| Cell Line | relative viability ([1]; first compound 0.001 µM) | relative viability ([1]; first compound 0.003162 µM) | relative viability ([1]; first compound 0.01 µM) | relative viability ([1]; first compound 0.03162 µM) | relative viability ([1]; first compound 0.1 µM) | relative viability ([2]; first compound 0.01 µM) | relative viability ([2]; first compound 0.03162 µM) | relative viability ([2]; first compound 0.1 µM) | relative viability ([3]; first compound 0.08 µM) | relative viability ([3]; first compound 0.253 µM) | relative viability ([3]; first compound 2.53 µM) | relative viability ([3]; first compound 8 µM) | relative viability ([4]; first compound 0.01 µM) | relative viability ([4]; first compound 0.03162 µM) | relative viability ([4]; first compound 0.1 µM) | relative viability ([4]; first compound 0.3162 µM) | relative viability ([4]; first compound 1 µM) | relative viability ([2]; first compound 0.3162 µM) | relative viability ([2]; first compound 1 µM) |
| --- | --- | --- | --- | --- | --- | --- | --- | --- | --- | --- | --- | --- | --- | --- | --- | --- | --- | --- | --- |
| NCI-H1437 | 0.497 | 0.568 | 0.637 | 0.312 | 0.194 | 0.758 | 0.901 | 0.824 | 1.19 | 1.11 | 1.15 | 0.997 | 0.311 | 0.461 | 0.389 | 0.375 | 0.439 | – | – |
| NCI-H1651 | 0.79 | 0.9 | 0.794 | 0.304 | 0.119 | 0.546 | 0.852 | 0.727 | 0.486 | 0.424 | 0.363 | 0.184 | 0.437 | 0.65 | 0.514 | 0.559 | 0.572 | 0.73 | 0.8 |
| NCI-H1666 | 0.907 | 0.852 | 0.988 | 0.72 | 0.513 | 0.8 | 0.893 | 0.837 | 0.892 | 0.725 | 0.781 | 0.835 | 0.483 | 0.484 | 0.325 | 0.553 | 0.3 | 0.903 | 0.855 |
| NCI-H1734 | 0.67 | 0.785 | 0.627 | 0.641 | 0.152 | 0.592 | 0.606 | 0.473 | 0.611 | 0.49 | 0.441 | 0.333 | 0.419 | 0.406 | 0.381 | – | 0.39 | – | 0.555 |
| NCI-H1755 | 0.809 | 0.837 | 0.668 | 0.769 | 0.511 | 0.678 | 0.716 | 0.625 | 0.452 | 0.451 | 0.489 | 0.399 | 0.413 | 0.485 | 0.444 | 0.309 | 0.437 | 0.531 | 0.644 |
| NCI-H1792 | – | 0.456 | 0.451 | 0.396 | 0.174 | 0.72 | 0.748 | 0.656 | 0.774 | 0.559 | 0.496 | 0.254 | 0.266 | 0.286 | 0.284 | 0.274 | 0.285 | – | 0.722 |
| NCI-H1915 | 0.266 | 0.302 | 0.295 | 0.289 | 0.106 | 0.563 | 0.63 | 0.636 | 0.544 | 0.561 | 0.404 | 0.245 | 0.874 | 0.88 | 1.01 | – | 0.952 | – | 0.608 |
| NCI-H1944 | 0.457 | 0.464 | 0.398 | 0.473 | 0.202 | 0.396 | 0.421 | 0.402 | 0.511 | 0.729 | 0.43 | 0.383 | 0.322 | 0.341 | 0.328 | 0.344 | 0.343 | 0.391 | 0.397 |
| NCI-H1975 | 0.267 | 0.312 | 0.33 | 0.102 | 0.101 | 0.72 | 0.812 | 0.755 | 0.793 | 0.727 | 0.705 | 0.765 | 0.28 | 0.294 | 0.308 | 0.344 | 0.266 | 0.754 | 0.721 |
| NCI-H1993 | 0.51 | 0.471 | 0.603 | 0.53 | 0.481 | 0.564 | 0.507 | 0.543 | 0.748 | 0.736 | 1.04 | 0.824 | 0.682 | 0.823 | 0.761 | 0.667 | 0.748 | 0.516 | 0.563 |
| NCI-H2085 | 0.498 | 0.503 | 0.478 | 0.35 | 0.223 | 0.552 | 0.985 | 0.66 | 1.1 | 0.875 | 0.962 | 0.881 | 0.357 | 0.484 | 0.409 | 0.437 | 0.451 | – | 0.748 |
| NCI-H2087 | 0.187 | 0.235 | 0.131 | 0.0842 | 0.0653 | 0.442 | 0.611 | 0.548 | 1.43 | 1.15 | 1.3 | 0.959 | 0.693 | 0.909 | 0.953 | 0.42 | 0.943 | – | 0.327 |
| NCI-H2126 | 0.516 | 0.61 | 0.58 | 0.563 | 0.447 | 0.638 | 0.7 | 0.714 | 1.08 | 0.942 | 0.959 | 0.948 | 0.456 | 0.5 | 0.481 | 0.429 | 0.48 | 0.654 | 0.621 |
| NCI-H2170 | 0.931 | 0.921 | 0.863 | 0.868 | 0.25 | 0.775 | 0.839 | 0.741 | 0.718 | 0.857 | 0.627 | 0.398 | 0.316 | 0.315 | 0.286 | 0.277 | 0.292 | 0.573 | 0.691 |
| NCI-H2347 | 0.269 | 0.23 | 0.298 | 0.292 | 0.262 | 0.375 | 0.324 | 0.417 | 0.905 | 0.749 | 0.665 | 0.549 | 0.624 | 0.69 | 0.551 | 0.731 | 1.05 | 0.386 | 0.414 |
| NCI-H2405 | 0.758 | 0.748 | 0.686 | 0.536 | 0.236 | 0.636 | 0.605 | 0.587 | 0.86 | 0.741 | 0.632 | 0.636 | 0.457 | 0.526 | 0.419 | 0.37 | 0.356 | 0.669 | 0.593 |
| NCI-H3122 | 0.196 | 0.234 | 0.255 | 0.244 | 0.239 | 0.896 | 0.909 | 0.79 | 1.03 | 0.945 | 0.908 | 0.559 | 0.533 | 0.6 | 0.609 | 0.434 | 0.27 | 0.218 | 0.16 |
